Results: patent US11752139B2, “Therapeutic combinations of orally administered irinotecan and a p-gp inhibitor for the treatment of cancer” (priority 2018, dated 2023)
Read-outs that look alike come from different tables or passages of the source.

Legend:
[1] = Study 1: maximum tolerated dose of orally administered irinotecan with Compound A; format: in vivo, human; settings: dosed five days of week one during a three-week cycle
Description: Orally administered irinotecan was determined to have a maximum tolerated dose (MTD) of 20 mg/m^2 per day when dosed five days of week one during a three-week cycle.

[2] = Study 2: maximum tolerated dose of orally administered irinotecan with Compound A; format: in vivo, human; settings: dosed five days of week one and week two during a three-week cycle
Description: Orally administered irinotecan was determined to have a MTD of 10 mg/m^2 per day when dosed five days of week one and week two during a three-week cycle.

advanced malignancies = assay: Phase 1 dose escalation study of oral irinotecan with 15 mg HM30181A: response; format: in vivo, human; settings: subjects with advanced malignancies; 15 mg HM30181A + oral irinotecan
Description: (§1) A phase 1 dose escalation study was performed to determine the MTD and DLT of orally administered irinotecan in combination with 15 mg (on day 1 of a 21-day cycle) of HM30181A. The study was performed on cohorts of 3-6 subjects with advanced malignancies. Subjects had Hb (hemoglobin count) 9 gm/dL, ANC (absolute neutrophil count) 1.5×10^9/L, and platelets 100×10^9/L, as well as adequate hepatic and renal function, and ECOG (Eastern Cooperative Oncology Group Performance Status) 0-1, and were not homozygous for UGT1A1*28.

[3] = human, in vivo
[4] = human, in vivo; remark: listed apart in the source
clinical [5] = settings: human, in vivo
clinical [6] = settings: human, in vivo; remark: listed apart in the source
clinical [7] = settings: human, in vivo, po, N = 3; for AUC(0-t): AUC24 h
Description: as §1

[8] = Simple Emax model of exposure (AUCinf, Cmax) versus dose
[9] = Study 2: pharmacokinetics of oral irinotecan and M1, 5-20 mg/m^2 per day for 10 days during a 21 day cycle; settings: for AUC / Cmax: human, in vivo, oral, mean
[10] = Study 1: pharmacokinetics of oral irinotecan and M1, 5-30 mg/m^2 per day for five days during a 21 day cycle
[11] = 15 mg HM30181A + 20-320 mg/m^2 oral irinotecan, day 1 of 21-day cycle, 30 patients
[12] = 15 mg HM30181A + 20-320 mg/m^2 oral irinotecan, 30 patients
[13] = 320 mg/m^2 dose level, with 15 mg HM30181A
[14] = dose 240 mg/m^2 oral irinotecan + 15 mg HM30181A
[15] = dose 280 mg/m^2 oral irinotecan + 15 mg HM30181A
[16] = dose 320 mg/m^2 oral irinotecan + 15 mg HM30181A

SMILES: CCc1c2c(nc3ccc(OC(=O)N4CCC(N5CCCCC5)CC4)cc13)-c1cc3c(c(=O)n1C2)COC(=O)[C@]3(O)CC [oral irinotecan, (4S)-4,11-Diethyl-4-hydroxy-3,14-dioxo-3,4,12,14-tetrahydro-1H-pyrano[3′,4′:6,7]indolizino[1,2-b]quinolin-9-yl 1,4′-bipiperidine-1′-carboxylate, reference compound]
- maximum tolerated dose (MTD) [1]: 20 mg/m^2 per day
- MTD [2]: 10 mg/m^2 per day
- response of stable disease (advanced malignancies): 9 out of 21
- AUC24 ([3]; 5 mg/m2): 64.59 ng·h/mL
- AUC24 ([3]; 10 mg/m2): 209.12 ng·h/mL
- AUC24 ([3]; 15 mg/m2): 379.56 ng·h/mL
- AUC24 ([3]; 25 mg/m2): 481.39 ng·h/mL
- AUC24 ([3]; 30 mg/m2): 454.54 ng·h/mL
- Cmax compared with IV dosed irinotecan [4]: below the range for 125 mg/m^2 of IV dosed irinotecan
- dose at which Cmax began to plateau [4]: 200 mg/m^2
- Tmax ([4]; po, 280 mg/m2): 1 h
- Acute cholinergic diarrhea (15 mg HM30181A + 20-320 mg/m^2 oral irinotecan): not observed
- Treatment-related Grade 3-4 AEs, number of subjects [11]: 12 subjects
- Treatment-related Grade 3-4 AEs, share of subjects [11]: 40%
- SAEs nausea or vomiting, number of subjects [12]: 4 subjects
- Treatment-related SAEs, number of patients [12]: 6 patients
- vomiting (most common AEs), share of subjects [12]: 20%
- DLTs, number of subjects [13]: 2 subjects
- kind of DLTs [13]: neutropenia and C. Difficile diarrhea
- AUC (clinical [5]; 5 mg/m2, AUC24): 50.9 ng·h/mL
- Cmax (clinical [5]; 5 mg/m2, Cmax): 6.52 ng/mL
- AUC (clinical [5]; 10 mg/m2, AUC24): 110 ng·h/mL
- Cmax (clinical [5]; 10 mg/m2, Cmax): 14 ng/mL
- AUC (clinical [5]; 15 mg/m2, AUC24): 194 ng·h/mL
- Cmax (clinical [5]; 15 mg/m2, Cmax): 20.6 ng/mL
- AUC (clinical [5]; 20 mg/m2, AUC24): 277 ng·h/mL
- Cmax (clinical [5]; 20 mg/m2, Cmax): 31.9 ng/mL
- AUC (clinical [5]; 25 mg/m2, AUC24): 703 ng·h/mL
- Cmax (clinical [5]; 25 mg/m2, Cmax): 63.6 ng/mL
- AUC (clinical [5]; 30 mg/m2, AUC24): 736 ng·h/mL
- Cmax (clinical [5]; 30 mg/m2, Cmax): 57.3 ng/mL
- Cmax (clinical [6]; 240 mg/m2, Observed Mean (Cmax)): 798 ng/mL
- AUC0-inf (clinical [6]; 240 mg/m2, Observed Mean AUCinf): 8150 ng·h/mL
- Cmax (clinical [6]; 280 mg/m2, Observed Mean (Cmax)): 763 ng/mL
- AUC0-inf (clinical [6]; 280 mg/m2, Observed Mean AUCinf): 6980 ng·h/mL
- Cmax (clinical [6]; 320 mg/m2, Observed Mean (Cmax)): 1060 ng/mL
- AUC0-inf (clinical [6]; 320 mg/m2, Observed Mean AUCinf): 14200 ng·h/mL
- Cmax (clinical [6]; po, 240 mg/m2, Cmax): 668 ng/mL
- Tmax (clinical [6]; po, 240 mg/m2, Tmax): 3 h
- AUC (clinical [6]; po, 280 mg/m2, AUC24): 5020 ng·h/mL
- AUC0-inf (clinical [6]; po, 280 mg/m2, AUCinf): 6010 ng·h/mL
- AUC(0-t) (clinical [6]; po, 280 mg/m2, AUClast): 5890 ng·h/mL
- Cmax (clinical [6]; po, 280 mg/m2, Cmax): 736 ng/mL
- Tmax (clinical [6]; po, 320 mg/m2, Tmax): 3 h
- AUC(0-t) (clinical [7]; [14]): 6960 ng·h/mL
- AUC(0-t) (clinical [7]; [15]): 6040 ng·h/mL
- AUC(0-t) (clinical [7]; [16]): 11300 ng·h/mL
- Cmax (clinical [7]; [14]): 798 ng/mL
- Cmax (clinical [7]; [15]): 763 ng/mL
- Cmax (clinical [7]; [16]): 1060 ng/mL
- Tmax (clinical [7]; [14]): 3 h
- Tmax (clinical [7]; [15]): 2 h
- Tmax (clinical [7]; [16]): 3 h
- Predicted AUCinf ([8]; dose 200 mg/m^2): 6992
- Predicted Cmax ([8]; dose 200 mg/m^2): 549
- Predicted AUCinf ([8]; dose 240 mg/m^2): 7679
- Predicted Cmax ([8]; dose 240 mg/m^2): 600
- Predicted AUCinf ([8]; dose 280 mg/m^2): 8253
- Predicted Cmax ([8]; dose 280 mg/m^2): 643
- Predicted AUCinf ([8]; dose 320 mg/m^2): 10189
- Predicted Cmax ([8]; dose 320 mg/m^2): 752
- pharmacokinetics versus dose ([9]; 5-20 mg/m^2 per day for 10 days during a 21 day cycle): increased proportionally with dose
- AUC ([9]; 5 mg/m2, AUC24, Day 1, dose group 5 mg/m^2): 72.1 ng·h/mL
- AUC ([9]; 5 mg/m2, AUC24, Day 12, dose group 5 mg/m^2): 95.1 ng·h/mL
- Cmax ([9]; 5 mg/m2, Cmax, Day 1, dose group 5 mg/m^2): 9.65 ng/mL
- AUC ([9]; 10 mg/m2, AUC24, Day 1, dose group 10 mg/m^2): 123 ng·h/mL
- AUC ([9]; 10 mg/m2, AUC24, Day 12, dose group 10 mg/m^2): 186 ng·h/mL
- Cmax ([9]; 10 mg/m2, Cmax, Day 1, dose group 10 mg/m^2): 15.5 ng/mL
- Cmax ([9]; 10 mg/m2, Cmax, Day 12, dose group 10 mg/m^2): 17.9 ng/mL
- AUC ([9]; 15 mg/m2, AUC24, Day 1, dose group 15 mg/m^2): 284 ng·h/mL
- AUC ([9]; 15 mg/m2, AUC24, Day 12, dose group 15 mg/m^2): 281 ng·h/mL
- Cmax ([9]; 15 mg/m2, Cmax, Day 1, dose group 15 mg/m^2): 26.9 ng/mL
- Cmax ([9]; 15 mg/m2, Cmax, Day 12, dose group 15 mg/m^2): 38.1 ng/mL
- AUC ([9]; 20 mg/m2, AUC24, Day 1, dose group 20 mg/m^2): 271 ng·h/mL
- AUC ([9]; 20 mg/m2, AUC24, Day 12, dose group 20 mg/m^2): 442 ng·h/mL
- Cmax ([9]; 20 mg/m2, Cmax, Day 1, dose group 20 mg/m^2): 28.8 ng/mL
- Cmax ([9]; 20 mg/m2, Cmax, Day 12, dose group 20 mg/m^2): 64.6 ng/mL
- pharmacokinetics versus dose ([10]; 5-30 mg/m^2 per day for five days during a 21 day cycle): increased proportionally with dose
- AUC ([10]; human, in vivo, 20 mg/m2): 412 ng·h/mL
